The values below come from ChEMBL document CHEMBL1155860, “Structure-activity relationship study of bone morphogenetic protein (BMP) signaling inhibitors” (Bioorg Med Chem Lett, 2008).

Test system in the first series: not listed separately
Nature of the series: Tmax in male C57B16 mouse at 3.0 mg/kg, ip. The class given is ADME, organism-based. The settings on record: in vivo. Also noted: dose 3 mg/kg, route intraperitoneal.
In the case of `c1ccc2c(-c3cnn4cc(-c5ccc(N6CCNCC6)cc5)cnc34)ccnc2c1`, the time to peak (Tmax) was less than 5 min.

Test system in the next series: not listed separately
Nature of the series: Metabolic stability in mouse liver microsomes assessed as intrinsic clearance. The class given is ADME, Microsome.
Details: not given
Consider `CN1CCN(CCOc2ccc(-c3cnc4c(-c5ccnc6ccccc56)cnn4c3)cc2)CC1`, for which the microsomal CLint came to 104 µL/min/mg.

Test system in another series: not listed separately
The series is described as follows: Tmax in female C57B16 mouse at 3.0 mg/kg, ip. The class given is ADME, organism-based. Also noted: dose 3 mg/kg, route intraperitoneal. The settings on record: in vivo.
On to `c1ccc2c(-c3cnn4cc(-c5ccc(N6CCNCC6)cc5)cnc34)ccnc2c1`, for which the Tmax is less than 5 min.

Test system in a further series: not listed separately
Nature of the series: Metabolic stability in mouse liver microsomes assessed as half life. The class given is ADME, Microsome.
Details: not given
For `CN1CCN(CCOc2ccc(-c3cnc4c(-c5ccnc6ccccc56)cnn4c3)cc2)CC1`, the half-life stood at 13.3 min.

The target in the next series is T1, Bone morphogenetic protein 4 (Homo sapiens, UniProt P12644).
T1 sequence (P12644 whole entry): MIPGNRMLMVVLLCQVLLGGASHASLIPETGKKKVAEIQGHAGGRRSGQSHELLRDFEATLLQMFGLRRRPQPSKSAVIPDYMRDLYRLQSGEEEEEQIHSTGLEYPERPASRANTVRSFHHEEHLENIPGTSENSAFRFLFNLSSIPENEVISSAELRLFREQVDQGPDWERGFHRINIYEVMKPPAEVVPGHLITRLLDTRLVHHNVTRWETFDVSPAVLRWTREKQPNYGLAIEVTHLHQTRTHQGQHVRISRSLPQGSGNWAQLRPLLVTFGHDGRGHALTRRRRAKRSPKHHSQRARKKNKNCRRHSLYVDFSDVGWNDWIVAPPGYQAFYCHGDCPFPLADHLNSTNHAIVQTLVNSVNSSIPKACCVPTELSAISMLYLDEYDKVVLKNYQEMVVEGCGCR
The series is described as follows: Inhibition of BMP4-induced phosphorylation of SMAD 1/5/8 by cytoblot cellular ELISA.
Details: not given
In turn, `c1cncc(-c2cnn3cc(-c4ccc(OCCN5CCCCC5)cc4)cnc23)c1` yielded an IC50 greater than 20000 nM.

Consider `c1cc(-c2cnn3cc(-c4ccc(OCCN5CCOCC5)cc4)cnc23)ccn1`, for which half-maximal inhibition (IC50) required 2000 nM.

Turning to `COc1ccc(-c2cnc3c(-c4ccncc4)cnn3c2)cc1`, the IC50 was determined as 6500 nM.

The compound `COc1ccc(-c2cnc3c(-c4cnc5ccccc5c4)cnn3c2)cc1` gave a half-inhibitory concentration (IC50) greater than 20000 nM.

As to `CN1CCN(CCOc2ccc(-c3cnc4c(-c5ccncc5)cnn4c3)cc2)CC1`, the IC50 came to 450 nM.

The compound `c1cc2ncc(-c3ccc(OCCN4CCCCC4)cc3)cn2n1` gave an IC50 greater than 20000 nM.

The compound `COc1ccc(-c2cnc3c(-c4cccc5cccnc45)cnn3c2)cc1` returned an IC50 greater than 20000 nM.

On to `Oc1ccc(-c2cnc3c(-c4ccnc5ccccc45)cnn3c2)cc1`, for which half-maximal inhibition (IC50) required 250 nM.

In the case of `COc1ccc(-c2cnc3c(-c4ccnc5ccccc45)ccn3c2)cc1`, the IC50 was greater than 20000 nM.

For `c1ccc2c(-c3ccn4cc(-c5ccc(OCCN6CCCCC6)cc5)cnc34)ccnc2c1`, half-maximal inhibition (IC50) was put at 2600 nM.

The compound `COc1ccc(-c2ccc3c(-c4ccnc5ccccc45)cnn3c2)cc1` gave an IC50 of 150 nM.

`c1ccc2c(-c3cnn4cc(-c5ccc(N6CCNCC6)cc5)ccc34)ccnc2c1`: the IC50 came to 5 nM.

`c1ccc(-c2cnn3cc(-c4ccc(OCCN5CCCCC5)cc4)cnc23)cc1` displayed an IC50 greater than 20000 nM.

Compound `CN1CCN(CCOc2ccc(-c3cnc4c(-c5ccncc5F)cnn4c3)cc2)CC1` returned an IC50 of 3300 nM.

Consider `c1cc(-c2cnc3c(-c4ccnc5ccccc45)cnn3c2)cc(N2CCNCC2)c1`, for which 20000 nM corresponded to half-maximal inhibition (IC50).

On to `Clc1ccc2c(-c3cnn4cc(-c5ccc(N6CCNCC6)cc5)cnc34)ccnc2c1`, for which it took 350 nM to reach half-maximal inhibition (IC50).

`Cc1nn2cc(-c3ccc(OCCN4CCN(C)CC4)cc3)cnc2c1-c1ccncc1` returned an IC50 greater than 20000 nM.

Compound `CN1CCN(CCOc2cccc(-c3cnc4c(-c5ccncc5)cnn4c3)c2)CC1` returned an IC50 of 4500 nM.

Consider `CN1CCN(CCOc2ccc(-c3cnc4c(-c5ccnc6ccccc56)cnn4c3)cc2)CC1`, for which the IC50 is 10 nM.

`c1ccc2c(-c3cnn4cc(-c5ccc(OCCN6CCCCC6)cc5)cnc34)ccnc2c1` came in with an IC50 of 90 nM.

With `c1ccc(-c2cnc3c(-c4ccnc5ccccc45)cnn3c2)cc1`, the IC50 was 750 nM.

In turn, `COC(=O)c1cc(-c2ccnc3ccccc23)c2ncc(-c3ccc(OC)cc3)cn12` gave an IC50 greater than 20000 nM.

For `COc1ccc(-c2cnc3c(-c4cccc5ncccc45)cnn3c2)cc1`, 3000 nM corresponded to half-maximal inhibition (IC50).

For `CCN(CC)CCOc1ccc(-c2cnc3c(-c4ccncc4)cnn3c2)cc1`, the IC50 turned out to be 500 nM.

In the case of `COc1ccc(-c2cnc3c(-c4ccnc5ccccc45)cnn3c2)cc1`, half-maximal inhibition (IC50) required 55 nM.

On to `COc1ccc(-c2cnc3c(-c4ccnc5cc(Cl)ccc45)cnn3c2)cc1`, for which the IC50 worked out at 500 nM.

As to `c1ccc2c(-c3cnn4cccnc34)ccnc2c1`, half-maximal inhibition (IC50) was put at 5000 nM.

The compound `c1ccc2c(-c3cnn4cc(-c5ccc(N6CCNCC6)cc5)cnc34)ccnc2c1` yielded an IC50 of 4.9 nM.

For `COc1ccc(-c2cnc3c(-c4ccc5ncccc5c4)cnn3c2)cc1`, the IC50 was greater than 20000 nM.

In turn, `c1cc(-c2cnn3cc(-c4ccc(OCCN5CCCCC5)cc4)cnc23)ccn1` [DORSOMORPHIN] registered an IC50 of 430 nM.

Test system in another series: not listed separately
Nature of the series: Half life in female C57B16 mouse at 3.0 mg/kg, ip. The class given is ADME, organism-based. Also noted: dose 3 mg/kg, route intraperitoneal. Conditions: in vivo.
`c1ccc2c(-c3cnn4cc(-c5ccc(N6CCNCC6)cc5)cnc34)ccnc2c1`: the half-life is 96 min.
